What was measured:
Experiment in all cases: SILAC LC-MS ATP acyl phosphate probe competition, native kinases in HEK293T
Assay type in all cases: binding
[1] = target: T1, PI42C (Phosphatidylinositol-5-phosphate 4-kinase type-2 gamma) (Homo sapiens, UniProt Q8TBX8); conditions: site C2; ATP 1 mM; Ketanserin, Ritanserin 100 μM; RF001 1 mM
T1 construct: Native kinases; endogenous in cells; host or cells: HEK293T soluble proteome
T1 sequence (Q8TBX8 1-421): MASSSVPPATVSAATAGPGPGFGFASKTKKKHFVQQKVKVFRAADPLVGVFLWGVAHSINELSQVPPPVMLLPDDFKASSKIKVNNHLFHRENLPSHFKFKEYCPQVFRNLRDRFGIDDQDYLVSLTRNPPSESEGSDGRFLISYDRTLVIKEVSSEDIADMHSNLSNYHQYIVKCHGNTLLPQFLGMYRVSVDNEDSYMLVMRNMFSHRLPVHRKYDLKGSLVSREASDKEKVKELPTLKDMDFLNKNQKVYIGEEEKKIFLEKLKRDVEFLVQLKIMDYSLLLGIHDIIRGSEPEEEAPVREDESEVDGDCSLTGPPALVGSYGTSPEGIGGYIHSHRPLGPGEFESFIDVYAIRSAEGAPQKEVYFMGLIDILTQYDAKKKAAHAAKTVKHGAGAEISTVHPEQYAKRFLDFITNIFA
Summary of the method: (§1)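 First, HEK293T proteomes at 2 mg/ml in kinase buffer were exposed to compound (heavy) or DMSO (light) for 30 min at 25° C. Next, samples were pooled 1:1 and trypsin/Lys-C digested. Finally, desthiobiotin peptides were enriched on avidin and measured by data-dependent LC-MS/MS.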

[2] = target: T2, CSK (Tyrosine-protein kinase CSK) (Homo sapiens, UniProt P41240); conditions: site ACT; ATP 1 mM; Ketanserin, Ritanserin 100 μM; RF001 1 mM
T2 construct: measured against >50 native kinases quantified in HEK293T soluble proteomes; endogenous in cells; host or cells: HEK293T soluble proteome
T2 sequence (P41240 whole entry): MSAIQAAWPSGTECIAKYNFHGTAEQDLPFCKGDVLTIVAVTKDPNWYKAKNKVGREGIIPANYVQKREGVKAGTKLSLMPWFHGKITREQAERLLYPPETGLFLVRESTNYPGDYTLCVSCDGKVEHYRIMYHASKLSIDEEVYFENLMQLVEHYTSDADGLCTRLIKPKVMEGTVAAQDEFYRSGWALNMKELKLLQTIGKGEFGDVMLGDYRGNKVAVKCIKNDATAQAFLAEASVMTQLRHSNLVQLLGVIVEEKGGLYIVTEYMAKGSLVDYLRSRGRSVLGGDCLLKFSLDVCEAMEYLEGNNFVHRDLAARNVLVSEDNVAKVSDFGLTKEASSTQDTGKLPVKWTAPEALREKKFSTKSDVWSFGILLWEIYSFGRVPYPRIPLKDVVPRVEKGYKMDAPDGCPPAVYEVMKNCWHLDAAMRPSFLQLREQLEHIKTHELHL
Summary of the method: as §1

[3] = target: T3, CHK2 (Serine/threonine-protein kinase Chk2) (Homo sapiens, UniProt O96017); conditions: for SILAC ratio, CHK2 probe-modified peptide: site Lys1, ATP 1 mM, Ketanserin, Ritanserin 100 μM, RF001 1 mM
T3 construct: measured against >50 native kinases quantified in HEK293T soluble proteomes; endogenous in cells; host or cells: HEK293T soluble proteome
T3 sequence (O96017 whole entry): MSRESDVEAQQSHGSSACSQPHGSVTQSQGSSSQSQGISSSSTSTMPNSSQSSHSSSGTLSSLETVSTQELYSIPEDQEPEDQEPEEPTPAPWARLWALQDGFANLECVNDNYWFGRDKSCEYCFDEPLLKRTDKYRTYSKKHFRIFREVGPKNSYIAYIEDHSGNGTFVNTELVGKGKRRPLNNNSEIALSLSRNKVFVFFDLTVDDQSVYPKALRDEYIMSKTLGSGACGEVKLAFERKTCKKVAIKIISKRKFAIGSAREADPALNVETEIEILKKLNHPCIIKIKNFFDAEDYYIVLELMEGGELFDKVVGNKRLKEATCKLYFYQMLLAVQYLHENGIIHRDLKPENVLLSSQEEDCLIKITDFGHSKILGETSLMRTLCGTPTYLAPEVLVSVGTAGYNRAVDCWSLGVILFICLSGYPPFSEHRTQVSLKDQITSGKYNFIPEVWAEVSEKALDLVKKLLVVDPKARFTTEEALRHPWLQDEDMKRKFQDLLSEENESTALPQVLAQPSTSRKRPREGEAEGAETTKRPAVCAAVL
Summary of the method: as §1

[4] = target: T4, MP2K3 (Dual specificity mitogen-activated protein kinase kinase 3) (Homo sapiens, UniProt P46734); conditions: site Lys2; ATP 1 mM; Ketanserin, Ritanserin 100 μM; RF001 1 mM
T4 construct: Native kinases; endogenous in cells; host or cells: HEK293T soluble proteome
T4 sequence (P46734 1-347): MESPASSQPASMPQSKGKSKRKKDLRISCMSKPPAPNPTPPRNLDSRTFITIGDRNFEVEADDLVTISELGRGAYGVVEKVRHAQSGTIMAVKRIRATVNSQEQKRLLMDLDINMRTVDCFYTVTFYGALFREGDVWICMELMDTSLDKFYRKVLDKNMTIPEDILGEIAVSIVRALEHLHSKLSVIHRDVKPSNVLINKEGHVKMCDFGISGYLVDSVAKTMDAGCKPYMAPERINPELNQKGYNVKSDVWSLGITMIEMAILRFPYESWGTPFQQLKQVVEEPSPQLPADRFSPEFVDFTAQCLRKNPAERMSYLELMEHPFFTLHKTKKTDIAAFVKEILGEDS
Summary of the method: as §1

[5] = target: T5, KS6B2 (Ribosomal protein S6 kinase 2) (Homo sapiens, UniProt Q9UBS0); conditions: site Lys2; ATP 1 mM; Ketanserin, Ritanserin 100 μM; RF001 1 mM
T5 construct: measured against >50 native kinases quantified in HEK293T soluble proteomes; endogenous in cells; host or cells: HEK293T soluble proteome
T5 sequence (Q9UBS0 whole entry): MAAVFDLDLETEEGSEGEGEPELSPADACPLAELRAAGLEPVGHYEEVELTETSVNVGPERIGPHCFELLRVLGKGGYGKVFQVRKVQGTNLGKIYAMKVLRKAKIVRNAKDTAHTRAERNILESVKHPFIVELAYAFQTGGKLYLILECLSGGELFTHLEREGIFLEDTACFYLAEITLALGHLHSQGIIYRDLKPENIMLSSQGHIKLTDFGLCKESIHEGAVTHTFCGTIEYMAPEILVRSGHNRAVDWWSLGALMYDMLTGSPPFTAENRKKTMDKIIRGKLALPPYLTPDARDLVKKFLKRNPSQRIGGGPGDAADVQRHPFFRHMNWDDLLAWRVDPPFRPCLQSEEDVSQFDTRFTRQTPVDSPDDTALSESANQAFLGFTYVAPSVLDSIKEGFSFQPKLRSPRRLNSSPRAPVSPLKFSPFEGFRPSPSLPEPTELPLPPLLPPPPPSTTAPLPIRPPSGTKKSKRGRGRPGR
Summary of the method: as §1

Row | Compound | SILAC ratio, PI42C probe-modified peptide [1] | SILAC ratio, CSK probe-modified peptide [2] | SILAC ratio, CHK2 probe-modified peptide [3] | SILAC ratio, MP2K3 probe-modified peptide [4] | SILAC ratio, KS6B2 probe-modified peptide [5] | CHK2 ATP acyl-phosphate labeling response (words, FIG. 20) ([3]; H82 and HEK293T, 1 mM RF001)
1 | O=C(c1ccc(F)cc1)C1CCN(CCn2c(=O)[nH]c3ccccc3c2=O)CC1 [Ketanserin] | 1.2 | 1.2 | 1.6 | 1.4 | 1.1 | –
2 | Fc1ccc(C(=C2CCNCC2)c2ccc(F)cc2)cc1 [RF001, 4-(Bis(4-fluorophenyl)methylene) piperidine] | 0.8 | 1.1 | 0.2 | 1.2 | 1.7 | activator of CHK2
3 | Cc1nc2sccn2c(=O)c1CCN1CCC(=C(c2ccc(F)cc2)c2ccc(F)cc2)CC1 [Ritanserin] | 1.7 | 1.8 | 2.2 | 1.7 | 1.4 | –
